Measurements reported in patent US20070191420A1, “Kinase inhibitors” (Devgen NV, priority 2004, published 2007).
Structures can show the parent of a compound that is named as a salt.

Columns and labels:
Assay in all cases: Fluorescence polarization (FP) PKC inhibition assay, Protein Kinase C Assay Kit, Red (Invitrogen)
Assay type in all cases: biochemical
PKC zeta = molecular target: T1, PKC zeta (Homo sapiens, UniProt Q05513); details: enzyme 20 ng/ml, ATP 2.5 μM
T1 construct: purchased Invitrogen 9232
T1 sequence (Q05513 1-592): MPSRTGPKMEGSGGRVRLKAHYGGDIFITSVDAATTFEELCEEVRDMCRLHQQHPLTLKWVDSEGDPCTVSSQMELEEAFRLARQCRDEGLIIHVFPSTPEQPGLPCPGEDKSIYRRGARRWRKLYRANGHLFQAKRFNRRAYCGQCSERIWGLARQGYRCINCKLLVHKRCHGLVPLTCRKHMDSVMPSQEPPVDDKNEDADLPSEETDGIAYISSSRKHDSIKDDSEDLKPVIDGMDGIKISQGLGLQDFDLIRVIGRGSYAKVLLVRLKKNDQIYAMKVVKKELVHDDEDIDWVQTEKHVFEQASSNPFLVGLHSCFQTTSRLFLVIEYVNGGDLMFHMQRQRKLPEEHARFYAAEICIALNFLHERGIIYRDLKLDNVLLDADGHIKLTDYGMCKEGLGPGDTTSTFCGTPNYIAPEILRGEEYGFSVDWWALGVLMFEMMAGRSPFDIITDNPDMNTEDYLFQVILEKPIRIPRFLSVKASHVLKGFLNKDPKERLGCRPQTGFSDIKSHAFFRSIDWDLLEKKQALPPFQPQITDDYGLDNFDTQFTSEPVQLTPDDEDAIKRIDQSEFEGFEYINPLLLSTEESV
Method: (§1) To perform the assay, 2 μl of a solution of the compound to be tested in DMSO (at each concentration) was added to 6 μl of a solution of the enzyme in 10 mM HEPES, 5 mM dithiotreitol, 0.1% Triton X-100, pH 7,4.
(§2) After incubating for 30 minutes at room temperature, 4 μl of a mixture of ATP and the protein substrate in 60 mM HEPES (pH7.4), 15 mM MgCl2, 0.3 mM CaCl2, 0.06% NP40 was added.
(§3) After incubating for 80 minutes at room temperature, 3 μl of a mix solution of 500 mM EDTA (stop solution) and the Rhodamine-based PKC Red Tracer (from the Protein Kinase C Assay Kit) in BGG/phosphate buffer (pH7.4) with 0.02% NaN3 and 0.1% Triton X-100 was added and 5 μl of a the Anti-Phosphoserine antibody (also from the Protein Kinase C Assay Kit) in BGG/phosphate buffer (pH7.4) with 0.02% NaN3.
(§4) The results were fitted to a curve using the XL-Fit algorithm and IC50 values were calculated for each fitted curve, again using the XL-Fit algorithm.

PKC gamma = molecular target: T2, PKC gamma (Homo sapiens, UniProt P05129); details: enzyme 20 ng/ml, ATP 2.5 μM
T2 construct: purchased Invitrogen 9343
Method: (§5) The substrate used was […]
as §1, §2, §3, §4

PKC epsilon = molecular target: T3, PKC epsilon (Homo sapiens, UniProt Q02156); details: enzyme 10 ng/ml, ATP 2.5 μM
T3 construct: purchased Invitrogen 6906
T3 sequence (Q02156 1-737): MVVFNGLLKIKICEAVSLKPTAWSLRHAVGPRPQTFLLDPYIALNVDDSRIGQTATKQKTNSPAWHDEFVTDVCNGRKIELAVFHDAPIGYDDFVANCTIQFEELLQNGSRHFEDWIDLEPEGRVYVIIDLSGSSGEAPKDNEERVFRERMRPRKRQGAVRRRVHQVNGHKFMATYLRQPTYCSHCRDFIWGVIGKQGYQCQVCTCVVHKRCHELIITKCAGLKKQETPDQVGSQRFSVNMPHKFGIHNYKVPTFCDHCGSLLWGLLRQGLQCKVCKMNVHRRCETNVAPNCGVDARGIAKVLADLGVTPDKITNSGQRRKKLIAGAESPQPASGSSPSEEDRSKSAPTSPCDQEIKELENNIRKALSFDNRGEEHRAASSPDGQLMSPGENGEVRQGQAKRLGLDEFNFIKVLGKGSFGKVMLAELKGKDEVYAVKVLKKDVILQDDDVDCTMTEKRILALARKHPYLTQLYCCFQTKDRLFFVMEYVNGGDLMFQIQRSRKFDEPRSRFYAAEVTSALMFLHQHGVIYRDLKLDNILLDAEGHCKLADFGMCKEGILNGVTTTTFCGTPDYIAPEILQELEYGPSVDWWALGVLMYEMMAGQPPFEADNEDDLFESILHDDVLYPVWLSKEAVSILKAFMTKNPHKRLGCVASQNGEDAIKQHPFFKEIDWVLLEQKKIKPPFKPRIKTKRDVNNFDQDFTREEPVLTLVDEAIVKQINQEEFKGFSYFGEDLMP
Method: as §5, §1, §2, §3, §4

PKC theta = molecular target: T4, PKC theta (Homo sapiens, UniProt Q04759); details: enzyme 20 ng/ml, ATP 2.5 μM
T4 construct: purchased Invitrogen 7101
T4 sequence (Q04759 whole entry): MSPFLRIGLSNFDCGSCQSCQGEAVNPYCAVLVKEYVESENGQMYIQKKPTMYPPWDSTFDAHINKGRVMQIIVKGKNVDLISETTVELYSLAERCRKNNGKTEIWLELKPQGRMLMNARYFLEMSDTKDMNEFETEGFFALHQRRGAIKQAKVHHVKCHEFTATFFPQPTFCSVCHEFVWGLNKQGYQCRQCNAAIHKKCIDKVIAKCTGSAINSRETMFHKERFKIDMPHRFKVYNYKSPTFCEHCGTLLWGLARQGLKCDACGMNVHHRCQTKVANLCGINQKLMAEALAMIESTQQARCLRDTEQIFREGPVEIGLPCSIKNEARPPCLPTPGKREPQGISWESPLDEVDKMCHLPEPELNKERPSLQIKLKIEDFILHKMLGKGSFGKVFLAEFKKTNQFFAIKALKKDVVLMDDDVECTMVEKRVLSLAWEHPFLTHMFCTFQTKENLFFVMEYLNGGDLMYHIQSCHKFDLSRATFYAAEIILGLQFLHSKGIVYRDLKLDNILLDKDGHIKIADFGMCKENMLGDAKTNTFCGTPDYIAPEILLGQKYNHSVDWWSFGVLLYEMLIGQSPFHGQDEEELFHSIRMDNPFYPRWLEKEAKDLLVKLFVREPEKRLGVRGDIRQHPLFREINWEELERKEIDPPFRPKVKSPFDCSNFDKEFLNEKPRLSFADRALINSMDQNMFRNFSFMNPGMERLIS
Method: as §5, §1, §2, §3, §4

| Molecule | IC50 (PKC zeta; substrate RFARKGSLRQKNV 1 μM) [µM] | IC50 (PKC gamma; substrate RFARKGSLRQKNV 1 μM) [µM] | IC50 (PKC epsilon; substrate RFARKGSLRQKNV 1 μM) [µM] | IC50 (PKC theta; substrate RFARKGSLRQKNV 1 μM) [µM] | IC50 (PKC zeta; substrate […] 1 μM) [µM] | IC50 (PKC gamma; substrate […] 1 μM) [µM] | IC50 (PKC epsilon; substrate […] 1 μM) [µM] | IC50 (PKC theta; substrate […] 1 μM) [µM] |
| --- | --- | --- | --- | --- | --- | --- | --- | --- |
| 4-aminomethyl-2,5-dimethyl-N-pyridin-4-yl-benzamide dihydrochloric acid salt [Compound 39] | > 100 | > 100 | 8.3 | 16.8 |  |  |  |  |
| CC(N)c1ccc(C(=O)Nc2ccncc2)s1 (racemic) [Compound 22, 5-(1-amino-ethyl)-thiophene-2-carboxylic acid pyridinedin-4-ylamide] |  |  |  |  | 45.9 | > 100 | 16 | 9.01 |
| NCCCCCC(=O)Nc1ccncc1 [Compound 1, 6-Amino-hexanoic acid pyridine-4-ylamide dihydrochloric acid salt] |  |  |  |  | > 100 | > 100 | > 100 | > 100 |
| CC(C)(C)C1CCC(C(=O)Nc2ccncc2)CC1 (centres unmarked) [Compound 2, 4-tert-butyl-cyclohexanecarboxylic acid pyridine-4-ylamide] |  |  |  |  | > 100 | > 100 | > 100 | > 100 |
| NC[C@H]1CC[C@H](C(=O)Nc2ccccc2)CC1 [Compound 3, Trans-4-aminomethyl-cyclohexanecarboxylic acid phenylamide hydrochloric acid salt] |  |  |  |  | 40.3 | 90.5 | > 100 | > 100 |
| NC[C@H]1CC[C@H](C(=O)Nc2ccc(F)cc2)CC1 [Compound 4, Trans-4-aminomethyl-cyclohexanecarboxylic acid (4-fluoro-phenyl)-amide hydrochloric acid salt] |  |  |  |  | > 100 | > 100 | > 100 | > 100 |
| NC[C@H]1CC[C@H](C(=O)NCc2ccncc2)CC1 [Compound 5, Trans-4-aminomethyl-cyclohexanecarboxylic acid (pyridine-4-ylmethyl)-amide] |  |  |  |  | > 100 | > 100 | > 100 | > 100 |
| NC[C@H]1CC[C@H](C(=O)Nc2cccnc2)CC1 [Compound 6, Trans-4-aminomethyl-cyclohexanecarboxylic acid pyridin-3-ylamide] |  |  |  |  | > 100 | > 100 | > 100 | > 100 |
| NC[C@H]1CC[C@H](C(=O)Nc2ccccn2)CC1 [Compound 7, Trans-4-aminomethyl-cyclohexanecarboxylic acid pyridin-2-ylamide] |  |  |  |  | > 100 | > 100 | > 100 | > 100 |
| CC(O)c1ccc(C(=O)Nc2ccncc2)cc1 (centres unmarked) [Compound 8, 4-(1-hydroxy-ethyl)-N-pyridin-4-yl-benzamide] |  |  |  |  | > 100 | > 100 | > 100 | > 100 |
| NCc1cccc(C(=O)Nc2ccncc2)c1 [Compound 9, 3-aminomethyl-N-pyridin-4-yl-benzamide dihydrochloric acid salt] |  |  |  |  | > 100 | > 100 | > 100 | > 100 |
| NCc1ccc(S(=O)(=O)Nc2ccncc2)cc1 [Compound 10, 4-aminomethyl-N-pyridin-4-yl-benzenesulfonamide] |  |  |  |  | > 100 | > 100 | > 100 | > 100 |
| NCc1ccc(NCc2ccncc2)cc1 [Compound 11, (4-aminomethyl-phenyl)-pyridin-4-ylmethyl-amine dihydrochloric acid salt] |  |  |  |  | > 100 | > 100 | > 100 | > 100 |
| N/C(=N\O)c1ccc(C(=O)Nc2ccncc2)cc1 [Compound 12, 4-(N-pyridin-4-yl)-benzamide oxime] |  |  |  |  | > 100 | > 100 | > 100 | > 100 |
| NCc1ccc(-c2nc(-c3ccncc3)no2)cc1 [Compound 13, 4-(3-pyridin-4-yl-[1,2,4]oxadiazol-5-yl-benzylaminedihydrochloric acid salt] |  |  |  |  | > 100 | > 100 | > 100 | > 100 |
| NCc1ccc(-c2nc3ccncc3[nH]2)cc1 [Compound 14, 4-(3H-imidazo[4,5-c]pyridine-2-yl)-benzylamine] |  |  |  |  | > 100 | > 100 | > 100 | > 100 |
| NCc1ccc(C(=O)Nc2ccncc2)o1 [Compound 15, 5-(amino-methyl)-furan-2-carboxylic acid pyridine-4-ylamide dihydrochloric acid salt] |  |  |  |  | > 100 | > 100 | > 100 | > 100 |
| CC(=O)NCc1ccc(C(=O)Nc2ccncc2)cc1 [Compound 16] |  |  |  |  | > 100 | > 100 | > 100 | > 100 |
| CC(c1ccc(C(=O)Nc2ccncc2)cc1)N(C)C (centres unmarked) [Compound 17] |  |  |  |  | > 100 | > 100 | > 100 | > 100 |
| NC[C@H]1CC[C@H](C(=O)Nc2ccncc2)CC1 [Compound 19, Trans-4-aminomethyl-cyclohexanecarboxylic acid pyridin-4-ylamide] |  |  |  |  | 24.3 | > 100 | 5.12 | 7.35 |
| NCc1ccc(C(=O)Nc2ccncc2)cc1 [Compound 20, 4-aminomethyl-N-pyridin-4-yl-benzamide dihydrochloric acid salt] |  |  |  |  | 51.4 | > 100 | 6.23 | 9.14 |
| NCc1ccc(C(=O)Nc2ccncn2)cc1 [Compound 21, 4-aminomethyl-N-pyrimidin-4-yl-benzamide dihydrochloric acid salt] |  |  |  |  | > 100 | > 100 | 34.4 | 87.2 |
| CC(N)c1ccc(C(=O)Nc2ccncc2)cc1 (centres unmarked) [Compound 23, 4-(1-amino-ethyl)-N-pyridin-4-yl-benzamide dihydrochloric acid salt] |  |  |  |  | 22.1 | > 100 | 1.21 | 2.25 |
| CCC(N)c1ccc(C(=O)Nc2ccncc2)cc1 (centres unmarked) [Compound 24, 4-(1-amino-propyl)-N-pyridin-4-yl-benzamide dihydrochloric acid salt] |  |  |  |  | 25.4 | > 30 | 0.65 | 2.91 |
| CC(C)(C)CC(N)c1ccc(C(=O)Nc2ccncc2)cc1 (centres unmarked) [Compound 25, 4-(1-amino-3,3-dimethyl-butyl)-N-pyridin-4-yl-benzamide dihydrochloric acid salt] |  |  |  |  | > 100 | > 100 | 4.98 | 12.2 |
| NC(c1ccc(C(=O)Nc2ccncc2)cc1)C1CC1 (centres unmarked) [Compound 26] |  |  |  |  | 41.5 | 35.9 | 0.72 | 3.9 |
| CC(N)c1ccc(C(=O)Nc2ccnc3[nH]ccc23)s1 (centres unmarked) [Compound 40, 5-(1-amino-ethyl)-thiophene-2-carboxylic acid N-(1H-pyrrolo[2,3pyridinedin-4-yl)-benzamidedihydrochloric acid salt] |  |  |  |  | > 100 |  | 3.9 | 3.2 |
